Measured values: patent US8129366B2, “VLA-4 inhibitory drug” (Daiichi Sankyo Company, Limited, priority 2005, dated 2012)

Target: T1, hα4 and β1 integrins (Homo sapiens, UniProt P05556+P13612)
T1 construct: expressed in transfected cells; host or cells: CHO cells
Assay: In vitro inhibition of binding between CHO cells expressing hα4 and β1 integrins and Eu3+-hVCAM-1 D1D7-IgG
Details: for Ki: CHO cells expressing hα4 and β1 integrins, Eu3+-hVCAM-1 D1D7-IgG ligand, without HSA; for IC50: in the presence of 3% human serum albumin (HSA final concentration 3%)
Protocol: CHO cells which forcibly expressed hα4 and β1 integrins through transfection thereof, were inoculated into a Costar 3599 plate (3×10^4 cells/100 μl/well), and cultured for two days. The cells in the wells were washed two times with buffer A*, and then Eu^3+-hVCAM-1 D1D7-IgG diluted with assay buffer** to 2 nM was added in an amount of 50 μl/well. The substance under test diluted with 26 DMSO-assay buffer (in the co-presence or absence of 6% human serum albumin) was added in an amount of 50 μl/well (adding separately diluted solution to the wells for performing Scatchard analysis), the contents were stirred for 5 minutes with a plate mixer, and then the plate was left to stand still for one hour at room temperature. The binding inhibitory activity in the presence of human serum albumin (HSA) was examined by diluting the specimen with 26 DMSO-assay buffer containing 6% HSA (SIGMA Corp., c/n A-1653), and adding the resultant (HSA final concentration 3%). After 30 to 60 minutes of the addition of specimen, the plate contents were washed 4 times with buffer A at 4° C., an enhancing reagent (DELFIA SA) was added in an amount of 100 μl/well, and the plate was shaken for 5 minutes using a plate mixer. Subsequently, the fluorescence intensity was measured with a time-resolved fluorometer (DELFIA Wallac). The IC50 of the substance under test (the concentration for 50% inhibition of the binding between CHO cells and Eu^3+-hVCAM-1 D1D7-IgG) was determined from the binding rate obtained from the calculating expression of [(FT−FNS)−(FI−FNS)]/[(FT−FNS)]×100. Here, FT represents the fluorescence intensity of a well not containing the substance under test; FNS represents the fluorescence intensity of a well not containing the substance under test and hVCAM-1 D1D7-IgG; and FI represents the fluorescence intensity of a well containing the substance under test. The Kd value which represents the strength of binding, and Bmax (maximum binding amount) were estimated to be in the range of 0.06 to 20 nM according to the Scatchard analysis method. The evaluation results of the Ki value of the substance under test, and of the IC50 value in the presence of 3% HSA are presented in Tables 2 to 7.
The Ki value was calculated according to the above-described expression. ([L] is the ligand concentration)
[* buffer A: 25 mM HEPES (pH 7.5), 150 mM NaCl, 1 mM Ca^2+, 1 mM Mg^2+, 4 mM Mn2+;
** assay buffer: 25 mM HEPES (pH=7.5), 150 mM NaCl, 1 mM Ca^2+, 1 mM Mg^2+, 4 mM Mn^2+, 0.1% BSA, 20 μM DTPA, with/without 6% ALBUMIN, HUMAN SERUM (C/N A-1653, SIGMA)]

T1 sequence (P13612 34-1032): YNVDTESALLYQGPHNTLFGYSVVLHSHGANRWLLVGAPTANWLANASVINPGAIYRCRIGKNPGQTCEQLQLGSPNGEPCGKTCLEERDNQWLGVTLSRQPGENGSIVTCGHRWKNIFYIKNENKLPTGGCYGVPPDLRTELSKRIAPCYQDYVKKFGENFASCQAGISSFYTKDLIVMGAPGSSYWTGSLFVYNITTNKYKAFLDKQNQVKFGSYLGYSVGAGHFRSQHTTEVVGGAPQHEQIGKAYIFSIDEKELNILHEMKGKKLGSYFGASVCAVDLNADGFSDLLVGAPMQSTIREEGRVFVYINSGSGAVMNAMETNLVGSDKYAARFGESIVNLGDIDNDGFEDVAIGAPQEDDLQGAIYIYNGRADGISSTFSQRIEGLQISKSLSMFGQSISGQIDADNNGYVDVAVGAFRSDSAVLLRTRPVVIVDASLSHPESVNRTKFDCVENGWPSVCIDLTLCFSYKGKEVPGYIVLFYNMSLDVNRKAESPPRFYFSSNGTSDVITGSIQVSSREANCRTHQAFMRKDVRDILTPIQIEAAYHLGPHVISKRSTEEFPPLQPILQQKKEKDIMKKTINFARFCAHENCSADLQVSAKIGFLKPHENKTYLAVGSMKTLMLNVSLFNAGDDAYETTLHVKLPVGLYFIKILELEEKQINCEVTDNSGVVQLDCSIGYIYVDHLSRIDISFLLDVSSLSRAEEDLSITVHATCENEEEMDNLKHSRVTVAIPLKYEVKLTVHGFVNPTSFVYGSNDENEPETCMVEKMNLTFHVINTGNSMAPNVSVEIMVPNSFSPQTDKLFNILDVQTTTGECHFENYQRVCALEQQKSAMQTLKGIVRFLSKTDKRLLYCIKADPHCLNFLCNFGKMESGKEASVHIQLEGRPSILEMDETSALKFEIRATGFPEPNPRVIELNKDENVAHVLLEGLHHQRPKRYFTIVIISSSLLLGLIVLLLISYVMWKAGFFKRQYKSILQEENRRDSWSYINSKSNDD
T1 sequence (P05556 21-798): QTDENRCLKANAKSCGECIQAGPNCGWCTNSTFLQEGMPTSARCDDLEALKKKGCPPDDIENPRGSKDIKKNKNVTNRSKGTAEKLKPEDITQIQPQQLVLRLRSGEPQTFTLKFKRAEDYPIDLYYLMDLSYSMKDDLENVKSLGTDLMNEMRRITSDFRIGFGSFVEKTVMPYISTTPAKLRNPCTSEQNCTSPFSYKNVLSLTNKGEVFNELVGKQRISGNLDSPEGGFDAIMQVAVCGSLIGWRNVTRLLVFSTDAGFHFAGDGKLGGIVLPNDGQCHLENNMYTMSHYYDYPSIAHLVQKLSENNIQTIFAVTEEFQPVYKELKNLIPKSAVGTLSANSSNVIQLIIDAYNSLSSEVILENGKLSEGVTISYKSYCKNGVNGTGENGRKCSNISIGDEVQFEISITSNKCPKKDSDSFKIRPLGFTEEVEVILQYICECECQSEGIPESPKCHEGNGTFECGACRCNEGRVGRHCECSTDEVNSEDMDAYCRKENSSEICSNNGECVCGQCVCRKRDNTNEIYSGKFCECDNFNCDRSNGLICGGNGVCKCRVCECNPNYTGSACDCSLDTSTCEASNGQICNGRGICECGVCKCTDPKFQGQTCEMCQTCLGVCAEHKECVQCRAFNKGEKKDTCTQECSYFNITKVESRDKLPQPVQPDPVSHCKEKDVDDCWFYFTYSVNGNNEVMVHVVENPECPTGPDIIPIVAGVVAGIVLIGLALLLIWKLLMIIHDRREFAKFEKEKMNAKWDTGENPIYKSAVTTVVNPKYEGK

Structure (SMILES) | Ki | IC50
O=C(Nc1cc(F)c(CC(=O)N2C[C@@H](N3CCN(CC(F)(F)F)CC3)C[C@H]2CO[C@H]2CC[C@H](C(=O)O)CC2)cc1Cl)c1csc2ccccc12 [Example 123, Trans-4-[1-[[4-[(benzo[b]thiophen-3-ylcarbonyl)amino]-5-chloro-2-fluorophenyl]acetyl]-(4S)-[4-(2,2,2-trifluoroethyl)piperazin-1-yl]-(2S)-pyrrolidinylmethoxy]cyclohexanecarboxylic acid] | 1.8 nM | 10 nM
C[C@@H]1CN([C@H]2C[C@@H](CO[C@H]3CC[C@H](C(=O)O)CC3)N(C(=O)Cc3ccc(NC(=O)c4csc5ccccc45)c(Cl)c3)C2)C[C@H](C)O1 [Example 92, Trans-4-[1-[[4-[(benzo[b]thiophen-3-ylcarbonyl)amino]-3-chlorophenyl]acetyl]-(4S)-(cis-2,6-dimethylmorpholin-4-yl)-(2S)-pyrrolidinylmethoxy]cyclohexanecarboxylic acid] | 1.2 nM | 10 nM
O=C(Nc1cc(Cl)c(CC(=O)N2C[C@@H](N3CCN(C4CCCCC4)CC3)C[C@H]2CO[C@H]2CC[C@H](C(=O)O)CC2)cc1Cl)c1coc2ccccc12 [Example 143, Trans-4-[1-[[4-[(benzo[b]furan-3-ylcarbonyl)amino]-2,5-dichlorophenyl]acetyl]-(4S)-[4-cyclohexylpiperazin-1-yl]-(2S)-pyrrolidinylmethoxy]cyclohexanecarboxylic acid] | 3.5 nM | 14 nM
CC1CN([C@H]2C[C@@H](CO[C@H]3CC[C@H](C(=O)O)CC3)N(C(=O)Cc3cc(Cl)c(NC(=O)c4coc5ccccc45)cc3F)C2)C1 [Example 11, Trans-4-[1-[[4-[(benzo[b]furan-3-ylcarbonyl)amino]-5-chloro-2-fluorophenyl]acetyl]-(4S)-(3-methylazetidin-1-yl)-(2S)-pyrrolidinylmethoxy]cyclohexanecarboxylic acid] | 3.5 nM | 21 nM
O=C(Nc1cc(Cl)c(CC(=O)N2C[C@@H](N3CCN(CC(F)(F)F)CC3)C[C@H]2CO[C@H]2CC[C@H](C(=O)O)CC2)cc1Cl)c1c[nH]c2ccccc12 [Example 129, Trans-4-[1-[[2,5-dichloro-4-[(1H-indol-3-ylcarbonyl)amino]phenyl]acetyl]-(4S)-[4-(2,2,2-trifluoroethyl)piperazin-1-yl]-(2S)-pyrrolidinylmethoxy]cyclohexanecarboxylic acid] | 0.93 nM | 1.9 nM
C[C@@H]1CN([C@H]2C[C@@H](CO[C@H]3CC[C@H](C(=O)O)CC3)N(C(=O)Cc3cc(Cl)c(NC(=O)c4coc5ccccc45)cc3F)C2)C[C@H](C)N1C [Example 146, Trans-4-[1-[[4-[(benzo[b]furan-3-ylcarbonyl)amino]-5-chloro-2-fluorophenyl]acetyl]-(4S)-(cis-1,2,6-trimethylpiperazin-4-yl)-(2S)-pyrrolidinylmethoxy]cyclohexanecarboxylic acid] | 2.6 nM | 7.6 nM
CO[C@@H]1CN([C@H]2C[C@@H](CO[C@H]3CC[C@H](C(=O)O)CC3)N(C(=O)Cc3cc(Cl)c(NC(=O)c4coc5ccccc45)cc3Cl)C2)C[C@H]1OC [Example 65, Trans-4-[1-[[4-[(benzo[b]furan-3-ylcarbonyl)amino]-2,5-dichlorophenyl]acetyl]-(4S)-[(3R,4R)-dimethoxypyrrolidin-1-yl]-(2S)-pyrrolidinylmethoxy]cyclohexanecarboxylic acid] | 2.9 nM | 35 nM
CN1CCN([C@H]2C[C@@H](CO[C@H]3CC[C@H](C(=O)O)CC3)N(C(=O)Cc3cc(Cl)c(NC(=O)c4coc5ccccc45)cc3Cl)C2)CC1=O [Example 155, Trans-4-[1-[[4-[(benzo[b]furan-3-ylcarbonyl)amino]-2,5-dichlorophenyl]acetyl]-(4S)-(4-methyl-3-oxopiperazin-1-yl)-(2S)-pyrrolidinylmethoxy]cyclohexanecarboxylic acid] | 2.1 nM | 10 nM
Cn1cc(C(=O)Nc2cc(F)c(CC(=O)N3C[C@@H](N4CCN(c5ccncc5)CC4)C[C@H]3CO[C@H]3CC[C@H](C(=O)O)CC3)cc2Cl)c2ccccc21 [Example 145, Trans-4-[1-[[5-chloro-2-fluoro-4-[(1-methyl-1H-indol-3-ylcarbonyl)amino]phenyl]acetyl]-(4S)-[4-(4-pyridyl)piperazin-1-yl]-(2S)-pyrrolidinylmethoxy]cyclohexanecarboxylic acid] | 3.9 nM | 11 nM
Cn1cc(C(=O)Nc2cc(Cl)c(CC(=O)N3C[C@@H](N4CCN(CCF)CC4)C[C@H]3CO[C@H]3CC[C@H](C(=O)O)CC3)cc2Cl)c2ccccc21 [Example 117, Trans-4-[1-[[2,5-dichloro-4-[(1-methyl-1H-indol-3-ylcarbonyl)amino]phenyl]acetyl]-(4S)-[4-(2-fluoroethyl)piperazin-1-yl]-(2S)-pyrrolidinylmethoxy]cyclohexanecarboxylic acid] | 4.5 nM | 12 nM
Cn1cc(C(=O)Nc2cc(F)c(CC(=O)N3C[C@@H](N4CCCO4)C[C@H]3CO[C@H]3CC[C@H](C(=O)O)CC3)cc2Cl)c2ccccc21 [Example 69, Trans-4-[1-[[5-chloro-2-fluoro-4-[(1-methyl-1H-indol-3-ylcarbonyl)amino]phenyl]acetyl]-(4S)-(isoxazolidin-2-yl)-(2S)-pyrrolidinylmethoxy]cyclohexanecarboxylic acid] | 6.1 nM | 66 nM
Cn1nc(C(=O)Nc2ccc(CC(=O)N3C[C@@H](N4CCN(CC(F)(F)F)CC4)C[C@H]3CO[C@H]3CC[C@H](C(=O)O)CC3)cc2Cl)c2ccccc21 [Example 128, Trans-4-[1-[[3-chloro-4-[(1-methyl-1H-indazol-3-ylcarbonyl)amino]phenyl]acetyl]-(4S)-[4-(2,2,2-trifluoroethyl)piperazin-1-yl]-(2S)-pyrrolidinylmethoxy]cyclohexanecarboxylic acid] | 3.9 nM | 13 nM
O=C(Nc1cc(Cl)c(CC(=O)N2C[C@@H](N3CCN(CC(F)(F)F)CC3)C[C@H]2CO[C@H]2CC[C@H](C(=O)O)CC2)cc1Cl)c1coc2ccccc12 [Example 125, Trans-4-[1-[[4-[(benzo[b]furan-3-ylcarbonyl)amino]-2,5-dichlorophenyl]acetyl]-(4S)-[4-(2,2,2-trifluoroethyl)piperazin-1-yl]-(2S)-pyrrolidinylmethoxy]cyclohexanecarboxylic acid] | 3.4 nM | 26 nM
CC1CCN([C@H]2C[C@@H](CO[C@H]3CC[C@H](C(=O)O)CC3)N(C(=O)Cc3cc(Cl)c(NC(=O)c4csc5ccccc45)cc3F)C2)CC1 [Example 98, Trans-4-[1-[[4-[(benzo[b]thiophen-3-ylcarbonyl)amino]-5-chloro-2-fluorophenyl]acetyl]-(4S)-(4-methylpiperidin-1-yl)-(2S)-pyrrolidinylmethoxy]cyclohexanecarboxylic acid] | 0.89 nM | 3 nM
O=C(Nc1cc(F)c(CC(=O)N2C[C@@H](N3CCSCC3)C[C@H]2CO[C@H]2CC[C@H](C(=O)O)CC2)cc1Cl)c1coc2ccccc12 [Example 159, Trans-4-[1-[[4-[(benzo[b]furan-3-ylcarbonyl)amino]-5-chloro-2-fluorophenyl]acetyl]-(4S)-(thiomorpholin-4-yl)-(2S)-pyrrolidinylmethoxy]cyclohexanecarboxylic acid] | 4.4 nM | 13 nM
C[C@@H]1CN([C@H]2C[C@@H](CO[C@H]3CC[C@H](C(=O)O)CC3)N(C(=O)Cc3cc(Cl)c(NC(=O)c4cn(C)c5ccccc45)cc3F)C2)C[C@H](C)O1 [Example 81, Trans-4-[1-[[5-chloro-2-fluoro-4-[(1-methyl-1H-indol-3-ylcarbonyl)amino]phenyl]acetyl]-(4S)-(cis-2,6-dimethylmorpholin-4-yl)-(2S)-pyrrolidinylmethoxy]cyclohexanecarboxylic acid] | 3 nM | 12 nM
O=C(Nc1cc(Cl)c(CC(=O)N2C[C@@H](N3CCCOCC3)C[C@H]2CO[C@H]2CC[C@H](C(=O)O)CC2)cc1Cl)c1csc2ccccc12 [Example 166, Trans-4-[1-[[4-[(benzo[b]thiophen-3-ylcarbonyl)amino]-2,5-dichlorophenyl]acetyl]-(4S)-([1,4]-oxazepan-4-yl)-(2S)-pyrrolidinylmethoxy]cyclohexanecarboxylic acid] | 1.7 nM | 8.2 nM
